Experimental data reported in patent publication US11174267B2, “Spiroindolinones and therapeutic uses thereof” (The Regents of the University of California, priority 2015, dated 2021).
Where two headings read alike, the source gives them in different places.

Tests used:
[1] = system: susceptible strain (HLY4123) of C. albicans; experiment: Dose-response with fluconazole (0.25 μg/mL) against susceptible strain; assay type: cell-based, Candida albicans; conditions: Candida albicans, with fluconazole 0.25 μg/mL; strain HLY4123
Description: (§1) C. albicans was grown in SC medium overnight and then diluted to an effective OD600 of 0.0625. Serial ten-fold dilutions of the test compounds (0.15-1500 μM) were prepared in DMSO in 1.5 mL Eppendorf tubes. […] The plates were incubated in a rotary shaker/incubator at 30° C. for 16 h. The contents of each well was resuspended with a micropipettor and a 20 μL aliquot was added to a polystyrene cuvette and diluted with 680 μL of deionized water. The suspension was triturated again immediately before measuring the absorbance at 600 nm (OD600) for cell densities. EC50 values were determined by fitting to the Hill equation using the Excel-based tool ED50PLUS v1.0 (Mario H. Vargas) or using Mathematica. Similar procedures were used for Candida glabrata and Cryptococcus neoformans.

[2] = molecular target: T1, Cdr1 (Candida albicans, UniProt Q5ANA3); experiment: Efflux of Rhodamine 6G (Cdr1 efflux assay); assay type: cell-based; conditions: C. albicans SC5314; R6G 10 μM; Compound 1 0.3, 3 and 30 μM
T1 construct: endogenous in cells; host or cells: Candida albicans SC5314 (wild type)
Description: Efflux of Rhodamine 6 G. Efflux of R6G was measured generally base on a method described previously by Shukla (cited below). Briefly, C. albicans SC5314 grown overnight at 30° C. in SC medium were transferred to fresh SC medium with a 1:50 dilution and grown at 30° C. with constant shaking for about 5 h. Cells were then pelleted, washed twice with phosphate-buffered saline (PBS), and resuspended in PBS as about 3 OD600 nm. The cells were then deenergized for 45 min in […] 2-deoxy-D-glucose. The cells were pelleted, washed and resuspended in PBS as 3 OD600 nm, to which compounds (30 μM or noted) and R6G (10 μM) were added successively and incubated at 30° C. for 40 min. Cells were collected, washed and resuspended in PBS with or without compounds and incubated at 30° C. Two percent glucose was added at time point 20 min to initiate the energy-dependent efflux. Samples were taken out every 10 min and the absorption of the supernatant was detected at 527 nm.
To further determine if the spiroindolinone functions by inhibiting Cdr1, the activity of efflux pumps was determined by monitoring the efflux of R6G, a fluorescent compound that is used for Cdr1 efflux assay in C. albicans. […] Extracellular R6G concentrations were quantified by measuring the absorbance of the supernatant at 527 nm. […]

[3] = system: Cryptococcus neoformans; experiment: EC50 in combination with fluconazole, Cryptococcus neoformans; assay type: cell-based; conditions: [fluconazole] = 4 μg/mL
Excerpt: (§2) Strains and growth condition. The wild-type Candida albicans strains used were SC5314 and CaSS1. Cdr1 heterozygous were from Merck Sharp & Dohme Corp. Double Barcoded (DBC) library of heterozygous Candida albicans mutants (version 2013A). Cdr1 deficient mutant was obtained by counterselection of the GRACE library strain on 5-Fluoroorotic Acid (5-FOA) containing plate. Clinical isolated resistant C. albicans were from Dr. David Rogers. Cryptococcus neoformans var. grubii H99 (ATCC 208821) and Candida glabrata BG2, a fluconazole-resistant clinical isolate, were used. Yeast strains were cultured at 30° C. in synthetic complete (SC) medium containing 2% glucose.
as §1
(§3) Because fungal drug-efflux ABC transporters are conserved, Cdr1 inhibitors that target the conserved regions of the pumps are expected to inhibit the drug efflux pumps in all fungi including C. albicans. […] Therefore, those spiroindolinones are candidates for combination antifungal therapy with azoles against invasive infections of not only C. albicans, but also other pathogenic fungi.

[4] = system: Resistant Candida albicans (clinical isolate-45); experiment: EC50 in combination with fluconazole, resistant C. albicans; assay type: cell-based
[5] = system: Candida glabrata; experiment: EC50 in combination with fluconazole, Candida glabrata; assay type: cell-based; conditions: [fluconazole] = 128 μg/mL
Excerpt: as §2, §1, §3

[6] = system: NIH 3T3 cells; experiment: Cytotoxicity, LDH assay; assay type: cell-based; conditions: concentrations up to 1.5 mM
Description: The cytotoxicity of spiroindoline Compounds 1, 8 and 25 were tested against NIH 3T3 cells at concentrations up to 1.5 mM (FIG. 13) using an LDH assay.

[7] = system: C. albicans; experiment: Drug susceptibility assay in combination with azole antifungals and other Cdr1/Mdr1 substrates; assay type: cell-based, Candida albicans; conditions: for EC50 / MIC50: Candida albicans
Description: Drug susceptibility assay. All the assays were carried out with SC medium in 24-well plates. […] Plates were incubated at 30° C. for 15 h. Cell growth was measured by reading absorbance at 600 nm. […] EC50 values were calculated by nonlinear regression curve fit of log (concentration) versus the % cell growth.
Compound 1 was also studied to determine if it can synergize with all azole antifungals and non-azole drugs that are known Cdr1 substrates. […] The effective concentrations of the spiroindolinone used are at nM levels, much lower than that of substrates (azoles for example), therefore ruling out competitive inhibition as the mechanism. […] With further study it is possible to determine drug-target interaction sites on Cdr1.

[8] = Solubility limit in the checkerboard assay; assay type: physicochemical; conditions: checkerboard assay medium
Excerpt: In all of the strains tested, the FIC index was below 0.5, fitting the classical definition of synergy.

[9] = system: resistant clinical isolates of C. albicans; experiment: EC50 against selected resistant clinical isolates with fluconazole; assay type: cell-based; conditions: Candida albicans, fluconazole 64 μg/mL
Description: as §1
(Flowers, S. A., et al. Eukaryotic Cell 2012, 11, 1289-1299.) The strains grow at dramatically different rates.

[10] = MDR1, with clotrimazole 0.221 μg/mL
[11] = MDR1, with fluconazole 0.500 μg/mL
[12] = MDR1, with itraconazole 0.004 μg/mL
[13] = MDR1, with ketoconazole 0.289 μg/mL
[14] = MDR1, with miconazole 0.031 μg/mL
[15] = MDR1, with vorizonazole 0.006 μg/mL

T1 sequence (Q5ANA3 whole entry): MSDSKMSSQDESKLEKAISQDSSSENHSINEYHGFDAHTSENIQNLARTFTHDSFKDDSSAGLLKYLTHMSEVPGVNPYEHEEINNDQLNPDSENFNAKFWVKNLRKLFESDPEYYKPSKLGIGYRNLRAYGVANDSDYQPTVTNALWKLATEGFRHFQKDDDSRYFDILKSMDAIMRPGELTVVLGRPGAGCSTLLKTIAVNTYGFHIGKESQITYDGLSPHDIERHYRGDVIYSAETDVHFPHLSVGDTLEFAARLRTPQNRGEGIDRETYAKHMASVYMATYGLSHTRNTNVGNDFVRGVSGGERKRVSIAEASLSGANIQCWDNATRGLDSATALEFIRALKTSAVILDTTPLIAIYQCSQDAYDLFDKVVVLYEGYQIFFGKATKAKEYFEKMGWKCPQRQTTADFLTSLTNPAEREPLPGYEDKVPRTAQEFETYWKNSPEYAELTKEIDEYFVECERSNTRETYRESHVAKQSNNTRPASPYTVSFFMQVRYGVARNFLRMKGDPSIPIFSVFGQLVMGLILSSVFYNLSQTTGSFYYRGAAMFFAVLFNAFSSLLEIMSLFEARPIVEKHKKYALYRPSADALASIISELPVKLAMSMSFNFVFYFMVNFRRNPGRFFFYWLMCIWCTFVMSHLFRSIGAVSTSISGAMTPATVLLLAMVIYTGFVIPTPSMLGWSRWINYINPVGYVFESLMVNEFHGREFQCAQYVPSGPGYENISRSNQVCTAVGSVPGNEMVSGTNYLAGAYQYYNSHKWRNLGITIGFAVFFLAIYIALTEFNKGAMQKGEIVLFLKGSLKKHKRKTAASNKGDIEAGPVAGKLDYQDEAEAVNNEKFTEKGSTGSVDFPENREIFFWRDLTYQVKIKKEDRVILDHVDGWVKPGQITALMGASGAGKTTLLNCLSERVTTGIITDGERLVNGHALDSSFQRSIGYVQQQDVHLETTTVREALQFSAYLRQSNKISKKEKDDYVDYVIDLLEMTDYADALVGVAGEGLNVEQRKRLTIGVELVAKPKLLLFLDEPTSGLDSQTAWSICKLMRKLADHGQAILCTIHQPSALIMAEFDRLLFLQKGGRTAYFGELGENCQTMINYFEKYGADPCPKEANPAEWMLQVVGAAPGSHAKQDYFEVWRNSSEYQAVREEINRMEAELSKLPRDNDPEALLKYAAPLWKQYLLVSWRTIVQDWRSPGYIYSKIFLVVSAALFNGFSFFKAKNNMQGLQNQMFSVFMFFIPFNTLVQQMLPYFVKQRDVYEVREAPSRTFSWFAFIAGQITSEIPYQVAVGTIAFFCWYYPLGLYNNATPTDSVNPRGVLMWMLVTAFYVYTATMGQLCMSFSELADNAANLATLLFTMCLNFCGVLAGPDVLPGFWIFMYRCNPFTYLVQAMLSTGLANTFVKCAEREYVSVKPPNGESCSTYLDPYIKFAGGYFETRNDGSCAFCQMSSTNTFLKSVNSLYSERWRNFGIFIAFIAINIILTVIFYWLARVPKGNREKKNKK

SMILES	EC50 [1]	EC50 [3]	EC50 [5]	EC50 [7, 10]	EC50 [7, 11]	EC50 [7, 12]	EC50 [7, 13]	EC50 [7, 14]	EC50 [7, 15]	MIC50 ([7]; with clotrimazole 0.221 μg/mL)	MIC50 ([7]; with fluconazole 0.500 μg/mL)	MIC50 ([7]; with itraconazole 0.004 μg/mL)	MIC50 ([7]; with ketoconazole 0.289 μg/mL)	MIC50 ([7]; with miconazole 0.031 μg/mL)	MIC50 ([7]; with vorizonazole 0.006 μg/mL)	other results
Cc1c(Cl)ccc2c1NC(=O)[C@]21N[C@H](Cc2ccccc2)[C@@H]2C(=O)N(c3ccc(F)cc3)C(=O)[C@@H]21 (racemic) [Compound 1, (±)-(3R,3′R,3a′R,6a'S)-3′-benzyl-6-chloro-5′-(4-fluorophenyl)-7-methyl-2′,3′,3a′,6a′-tetrahydro-4′H-spiro[indoline-3,1′-pyrrolo[3,4-c]pyrrole]-2,4′,6′(5′H)-trione]	11 nM	> 30000 nM	640 nM	500 nM	100 nM	700 nM	830 nM	990 nM	310 nM	3.7 µM	1.3 µM	1.7 µM	7.4 µM	3.6 µM	4.5 µM	energy dependent efflux of R6G [2]: almost totally inhibited; EC50 ([4]; C. albicans clinical isolate-45; [fluconazole] = 64 μg/mL; read-out: EC50 Resistant Candida albicans): 440 nM; cytotoxicity [6]: weak to negligible cytotoxicity; susceptibility of C. albicans to azole antifungals ([7]; all azole antifungals tested): increase the susceptibility; growth inhibitory activity of cycloheximide ([7]; cycloheximide, substrate of the Cdr1 efflux pump): enhance the growth inhibitory activity; growth inhibitory activity of thiolutin ([7]; thiolutin, substrate of Mdr1): did not enhance the growth inhibitory activity
Cc1c(Cl)ccc2c1NC(=O)[C@@]21[C@H]2C(=O)N(c3ccccc3)C(=O)[C@H]2[C@H]2CN(C(=O)OCc3ccccc3)CCN21 (racemic) [Compound 25, (±)-benzyl (3R,3a′R,3b'S,9a'S)-6-chloro-7-methyl-1′,2,3′-trioxo-2′-phenyl-2′,3′,3a′,3b′,4′,6′,7′,9a′-octahydrospiro[indoline-3,9′-pyrrolo[3′,4′:3,4]pyrrolo[1,2-a]pyrazine]-5′(1′H)-carboxylate]	0.3 nM	192 nM	> 30000 nM	150 nM	11 nM	190 nM	14 nM	240 nM	62 nM	4.1 µM	0.84 µM	2.5 µM	2.3 µM	25 µM	1.9 µM	EC50 ([4]; read-out: EC50 Resistant Candida albicans; C. albicans clinical isolate-45; [fluconazole] = 64 μg/mL): 400 nM; solubility [8]: 30 to 300 µM; EC50 ([7]; MDR1, with isavuconazole 0.0006 μg/mL): 4 nM; MIC50 ([7]; with isavuconazole 0.0006 μg/mL): 0.11 µM; EC50 ([9]; read-out: Potency Cpd 25 EC50, clinical isolate 17): 5 nM; EC50 ([9]; read-out: Potency Cpd 25 EC50, clinical isolate 23): 53 nM; EC50 ([9]; read-out: Potency Cpd 25 EC50, clinical isolate 26): 2 nM; EC50 ([9]; read-out: Potency Cpd 25 EC50, clinical isolate 33): 11 nM; EC50 ([9]; read-out: Potency Cpd 25 EC50, clinical isolate 36): 5 nM; EC50 ([9]; read-out: Potency Cpd 25 EC50, clinical isolate 45): 16 nM
